Assay results as given in paper PMC10115881, “Disrupting the α-synuclein-ESCRT interaction with a peptide inhibitor mitigates neurodegeneration in preclinical models of Parkinson’s disease” (Nature Communications, 2023).

Assays:
A53T a-syn oligomers = assay: Split-YFP PCA/FACS screen of A53T a-syn oligomers; format: cell-based, human
Source text: We used a lentiviral library of 50,549 7-mer peptides enriched in PPI motifs[13] on a green fluorescent protein (GFP) scaffold (Fig. 1A). We infected cells in a pooled format and the amino acid sequence of each peptide served as its own barcode. By using a low multiplicity of infection followed by puromycin selection, each infected cell expressed one unique GFP-peptide. We screened for peptides that reduced a-syn-mediated cytotoxicity or a-syn oligomers in parallel (Fig. 1A). To cause cytotoxicity relevant to PD, we induced proteostatic stress in HEK293 cells by inhibiting the proteasome with MG132 and overexpressing human WT a-syn associated with idiopathic PD in one screen or the more toxic mutant A53T a-syn associated with familial PD in a second screen. This combination of a-syn overexpression and pharmacological proteasome inhibition led to death of most cells, with only those that expressed a protective peptide surviving. By extracting genomic DNA from the surviving cells and amplifying the peptide coding sequences, we identified the protective peptides (Fig. 1A). To detect a-syn oligomers, we used a protein fragment complementation assay (PCA) of a-syn oligomerization in HEK293 cells. In this assay, human A53T a-syn was fused to either the C- or N-terminal half of yellow fluorescent protein (YFP). No fluorescence is detectable while a-syn exists in monomers but, when a-syn oligomerizes, the two halves of YFP come in close enough proximity to form a functional, spontaneously fluorescent protein. […] Our screens yielded 10 hits (Table S1). The hit with the most reads (i.e., the most abundant) was the same peptide in all screens: IPIQLKA (named PDpep1) (Table S1). We validated the cytoprotective effects of PDpep1 in HEK293 cells overexpressing WT or A53T a-syn (Figs. 1B, S1A), as well as its ability to reduce WT or A53T a-syn oligomers in a luciferase-based PCA[18]–[20] compared to a scrambled control peptide (Figs. 1C, S1B).
HEK293T cells (ATCC, CRL-3216) were maintained in DMEM supplemented with 10% FBS and 1% pen/strep/glutamine, and the appropriate selection antibiotics when required. Lentiviruses were made in a 15 cm dish format by transfecting packaging cells (HEK293T) with a three-plasmid system (expression vector, psPAX2 and pMD2.G) and using Polyjet DNA transfection reagent (FroggaBio, SL100688.1). Viral transduction of HEK293T cells were performed with a multiplicity of infection (MOI) of 0.3. Infected cells were selected in puromycin-containing medium to eliminate uninfected cells and three aliquots of cells were collected for sampling of the initial (T0) cell population. Cells were treated with MG132 at concentrations of 0, 10, 25, or 50 µM. For the cell viability screen, surviving cells were collected and gDNA was extracted for identification of peptide inhibitors of cell toxicity. For the inhibition of a-syn aggregation screen, a protein fragment complementation assay (PCA) was used by transfecting cells with split YFP-a-syn constructs following stable expression of the peptides. Cells were sorted based on their YFP fluorescence intensities with a FACSVantage SE cell sorter (BD Bioscience) and gDNA was extracted for identification of peptides.
Cells were harvested by trypsin treatment and centrifuged at 500 × g for 5 min. The pellet was resuspended in ice-cold PBS and centrifuged again. The pellet was then resuspended at a concentration of 4 × 10^6 cells/ml in the sorting buffer, which is PBS containing 100 Kunitz DNase I/ml, 10 μg/ml propidium iodide (Sigma), and 2% FBS. The cells were then sent through a 40 μm filter to remove large clumps and loaded into either a FACScan Flow Cytometer (BD Bioscience) for cell analysis or a FACSVantage SE cell sorter (BD Bioscience) for cell sorting. The cells with positive propidium iodide staining (i.e., dead cells) were first eliminated from the analysis. […]

LAMP1 = LAMP1 levels in HEK293 cells; format: cell-based, human; settings: A53T a-syn overexpression
Protocol: Infected or transfected cells were scraped from six-well dishes and lysed with lysis buffer (50 mM Tris-HCl pH 7.4, 1% Nonidet P-40, 150 mM NaCl, 1 mM EDTA, 1× protease inhibitor mixture (Sigma)) for 30 min at 4 °C. The insoluble pellet was removed following a 10,000 rpm spin for 5 min at 4 °C. Lysates were analyzed by SDS-PAGE/immunoblot using 4–20% Mini-PROTEAN Tris-glycine gels (Bio-Rad), transferred to polyvinylidene fluoride (PVDF) membranes, and blocked in 5% milk containing PBS-Tween-20 (0.1%) for 1 h. PVDF membranes were then incubated with specified primary antibodies followed by incubation with horseradish peroxidase-conjugated secondary antibodies (anti-mouse HRP-linked, Cell Signaling, catalog #7076, 1:5000; anti-rabbit HRP-linked, Cell Signaling, catalog #7074, 1:5000) and detected using enhanced chemiluminescence (GE Healthcare). […]
After fixation, cells were permeabilized with 0.2% Triton-X-100 for 15 min, washed three times with PBS and then incubated with blocking solution (1% BSA, 22.52 mg/mL glycine, 0.1% Tween-20 in PBS or 0.4% saponin, 1% BSA, and 5% goat or donkey serum in PBS) for 1 h. […] Following another three washes with PBS, nuclei were counterstained with DAPI (ThermoFisher) and then coverslips were mounted on slides using Dako fluorescence mounting medium (Agilent) and sealed using clear nail varnish.

Substance | Reads GFP High (A53T a-syn oligomers) | Reads GFP Inter (A53T a-syn oligomers) | Reads GFP Neg (A53T a-syn oligomers) | Reads Ratio (A53T a-syn oligomers) | Effect on LAMP1 levels, HEK293 (LAMP1)
IPIQLKA [PDpep1, initial screen hit peptide IPIQLKA] | 12 | 2853 | 15556 | 1,218.98 | 
DEEIERQLKALG [PDpep1.3] |  |  |  |  | LAMP1 levels were restored
